{
  "source": "patent US20090123545A1",
  "about": "“Rapid Onset and Short Term Modafinil Compositions and Methods of Use Thereof” (priority 2005, published 2009)",
  "key": {"dopamine reuptake pump": {"target": "dopamine reuptake pump (Homo sapiens, UniProt Q01959)", "sequence (Q01959 whole entry)": "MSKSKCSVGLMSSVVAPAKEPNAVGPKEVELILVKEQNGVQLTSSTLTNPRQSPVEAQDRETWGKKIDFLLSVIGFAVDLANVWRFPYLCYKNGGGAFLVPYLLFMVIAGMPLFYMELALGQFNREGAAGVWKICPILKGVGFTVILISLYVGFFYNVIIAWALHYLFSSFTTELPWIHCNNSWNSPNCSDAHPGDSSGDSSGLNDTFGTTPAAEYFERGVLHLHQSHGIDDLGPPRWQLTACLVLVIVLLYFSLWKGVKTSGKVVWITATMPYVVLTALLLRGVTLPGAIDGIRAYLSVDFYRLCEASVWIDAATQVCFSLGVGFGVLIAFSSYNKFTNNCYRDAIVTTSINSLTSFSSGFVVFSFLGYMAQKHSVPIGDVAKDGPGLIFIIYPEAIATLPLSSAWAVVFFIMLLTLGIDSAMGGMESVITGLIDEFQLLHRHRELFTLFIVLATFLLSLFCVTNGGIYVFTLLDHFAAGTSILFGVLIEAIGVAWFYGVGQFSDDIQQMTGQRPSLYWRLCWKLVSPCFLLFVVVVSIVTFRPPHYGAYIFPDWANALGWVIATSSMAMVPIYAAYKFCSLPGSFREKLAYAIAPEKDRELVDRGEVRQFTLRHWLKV", "details": "in vitro studies; cited from earlier work"}, "[1]": {"details": "cited from earlier work"}, "normal human volunteer": {"tested_on": "normal human volunteer", "assay": "Double blind study of sub-lingual d-modafinil composition in a normal human volunteer", "assay_type": "in vivo", "procedure": "The test subject was given three vials: one vial containing the base formulation (as in Example 1) to test the taste and delivery means, and two coded vials. One of the coded vials contained 100 mg of d-modafinil formulation, and the second coded vial contained placebo (an equivalent amount of formulation).\nThe subject was instructed to place the contents of the test formulation under the tongue, to allow the formulation to dissolve over two minutes, and to rinse any residual material with some water."}, "extracellular dopamine": {"tested_on": "extracellular dopamine", "details": "in vivo; cited from earlier work"}, "normal human volunteers": {"tested_on": "normal human volunteers", "assay": "Double blind crossover study of sub-lingual d-modafinil in normal human volunteers (VAS, difficulty to fall asleep)", "assay_type": "in vivo", "design": "key to Visual Analog Scale (0 to 3), difficulty to fall asleep: 0: fell asleep as usual; 1: slight, noticeable change; 2: noticeable change; 3: extreme change (kept awake most of night)", "details": "200 mg sublingual, one hour before bedtime", "procedure": "Two subjects received a set of coded vials containing either 200 mg of d-modafinil formulated according to Example 1 or an equivalent placebo formulation.\nThe subjects were given the following instructions:\nStart testing at approximately the same time every evening, one hour before bedtime.\nRandomly select one of the coded vials each day.\nOpen the vials and place the powder under your tongue.\nAllow the powder to dissolve slowly for approximately 1-2 minutes.\nAfter the powder is fully dissolved, you may drink some water.\nRecord observations in a Visual Analogue Scale (VAS) describing the difficulty to fall asleep."}, "mice": {"tested_on": "mice", "details": "cited from earlier work"}},
  "note": "“And” between values parts separate entries of the source, which are not always exact repeats. Identical values can stand only once. “Also recorded” adds a separate entry of the source. Like-named read-outs stand apart in the source and are kept apart here.",
  "data": [
    {"smiles": "NC(=O)C[S+]([O-])C(c1ccccc1)c1ccccc1", "note": "(racemic) [racemic modafinil, 2-[(diphenylmethyl)sulfinyl]acetamide]", "values": [
      {"measurement": "effect on reuptake of dopamine", "setting": "dopamine reuptake pump", "result": "inhibit the reuptake of dopamine"},
      {"measurement": "time to reach maximum plasma concentrations", "setting": "[1]; after a single oral dose", "result": "2 to 4", "unit": "h"},
      {"measurement": "half-life (T1/2) in the human body", "setting": "[1]", "result": "about 15 hours"},
      {"measurement": "fraction of modafinil eliminated by the liver", "setting": "[1]; ingestion of PROVIGIL tablets, humans", "result": "≤ 90", "unit": "%"},
      {"measurement": "effect on wakefulness (subject's report)", "setting": "normal human volunteer; 200 mg Provigil at 10 p.m., same subject about one week before, not blinded", "result": "very pronounced effect"},
      {"measurement": "effect on extracellular dopamine", "setting": "extracellular dopamine", "result": "increases extracellular dopamine"}
    ]},
    {"smiles": "NC(=O)C[S@+]([O-])C(c1ccccc1)c1ccccc1", "note": "[d-modafinil, (d)-(+)-modafinil]", "values": [
      {"measurement": "subject's reported observations on sleep and alertness", "setting": "normal human volunteers", "result": "took longer than usual to fall asleep; also recorded: significantly more alert"},
      {"measurement": "Visual Analog Scale (0 to 3), difficulty to fall asleep", "setting": "normal human volunteers; Subject 1, Subject 2", "result": "1 and 2"},
      {"measurement": "pharmacological activity compared with the modafinil racemic compound", "setting": "mice", "result": "same pharmacological activity"},
      {"measurement": "amount in the circulation compared with l-modafinil", "setting": "[1]; after use of racemic modafinil", "result": "three times less"},
      {"measurement": "effect on wakefulness (subject's blinded report)", "setting": "normal human volunteer; 100 mg sublingual at 11:15 p.m., one subject", "result": "active"},
      {"measurement": "wakefulness effect compared with 200 mg racemic modafinil", "setting": "normal human volunteer; 100 mg sublingual, same subject", "result": "neither test substance kept them awake as strongly or as long as the 200 mg racemic modafinil"}
    ]},
    {"smiles": "NC(=O)C[S@@+]([O-])C(c1ccccc1)c1ccccc1", "note": "[l-modafinil]", "values": [
      {"measurement": "pharmacological activity compared with the modafinil racemic compound", "setting": "mice", "result": "same pharmacological activity"},
      {"measurement": "half-life (T1/2) in the human body", "setting": "[1]", "result": "10 to 14", "unit": "h"},
      {"measurement": "half-life (T1/2) in the human body", "setting": "[1]; listed as 1-modafinil", "result": "13 to 16", "unit": "h"}
    ]}
  ]
}
